Here are results for 2 compounds from paper PMC12372887, “Mechanism and cellular actions of the potent AMPK inhibitor BAY-3827” (Science Advances, 2025).

Assay in all cases: Kinase panel (140 human kinases)
What all share (format): biochemical

One experiment addresses DYRK3 (Homo sapiens, UniProt O43781). The protocol: (§1) BAY-3827 and BAY-974 were assayed against a 140-human kinase panel at 0.1 μM and at 1 μM (BAY-3827) concentration in a [γ-^33P] ATP–based radioactive filter binding assay ([31], [65]) setup in duplicates with reported mean remaining kinase percentage activity alongside SD (table S1). Assays were performed at either 5, 20, or 50 μM ATP to be at or below the Michaelis constant for ATP for each enzyme and conducted by the services offered by the International Centre for Kinase Profiling at MRC Protein Phosphorylation and Ubiquitylation Unit, University of Dundee (https://www.kinase-screen.mrc.ac.uk/services/premier-screen).

Another experiment concerns the target CSK (Homo sapiens, UniProt P41240). Here is the method:
as §1

In a further experiment the target is T1, TBK1 (Homo sapiens, UniProt Q9UHD2).
T1 sequence (Q9UHD2 1-729): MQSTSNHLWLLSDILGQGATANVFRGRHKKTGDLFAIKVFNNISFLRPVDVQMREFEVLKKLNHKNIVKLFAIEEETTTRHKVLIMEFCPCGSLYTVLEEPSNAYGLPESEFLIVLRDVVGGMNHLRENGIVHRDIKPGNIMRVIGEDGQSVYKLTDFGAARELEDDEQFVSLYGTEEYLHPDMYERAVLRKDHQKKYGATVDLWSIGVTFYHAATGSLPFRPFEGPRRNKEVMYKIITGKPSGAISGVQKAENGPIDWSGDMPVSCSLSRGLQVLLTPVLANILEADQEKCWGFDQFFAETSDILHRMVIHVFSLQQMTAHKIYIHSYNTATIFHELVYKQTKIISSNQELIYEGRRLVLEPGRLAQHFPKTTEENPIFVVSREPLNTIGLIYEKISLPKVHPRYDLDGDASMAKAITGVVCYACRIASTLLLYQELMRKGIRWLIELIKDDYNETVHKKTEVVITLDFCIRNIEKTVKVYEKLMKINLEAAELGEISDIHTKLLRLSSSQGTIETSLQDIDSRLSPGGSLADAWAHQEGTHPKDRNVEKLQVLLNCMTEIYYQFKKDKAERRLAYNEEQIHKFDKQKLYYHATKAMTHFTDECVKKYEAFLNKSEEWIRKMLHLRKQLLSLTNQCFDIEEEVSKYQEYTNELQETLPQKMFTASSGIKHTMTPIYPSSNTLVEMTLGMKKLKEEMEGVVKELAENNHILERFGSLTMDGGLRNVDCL
Here is the method:
as §1

Another experiment addresses EF2K (Homo sapiens, UniProt O00418). Here is the method:
as §1

For another experiment, the target named is MARK3 (Homo sapiens, UniProt P27448). Here is the method:
as §1

The target in the next experiment is IRAK1 (Homo sapiens, UniProt P51617). Here is the method: as §1
Chain of IRAK1 (P51617 whole entry): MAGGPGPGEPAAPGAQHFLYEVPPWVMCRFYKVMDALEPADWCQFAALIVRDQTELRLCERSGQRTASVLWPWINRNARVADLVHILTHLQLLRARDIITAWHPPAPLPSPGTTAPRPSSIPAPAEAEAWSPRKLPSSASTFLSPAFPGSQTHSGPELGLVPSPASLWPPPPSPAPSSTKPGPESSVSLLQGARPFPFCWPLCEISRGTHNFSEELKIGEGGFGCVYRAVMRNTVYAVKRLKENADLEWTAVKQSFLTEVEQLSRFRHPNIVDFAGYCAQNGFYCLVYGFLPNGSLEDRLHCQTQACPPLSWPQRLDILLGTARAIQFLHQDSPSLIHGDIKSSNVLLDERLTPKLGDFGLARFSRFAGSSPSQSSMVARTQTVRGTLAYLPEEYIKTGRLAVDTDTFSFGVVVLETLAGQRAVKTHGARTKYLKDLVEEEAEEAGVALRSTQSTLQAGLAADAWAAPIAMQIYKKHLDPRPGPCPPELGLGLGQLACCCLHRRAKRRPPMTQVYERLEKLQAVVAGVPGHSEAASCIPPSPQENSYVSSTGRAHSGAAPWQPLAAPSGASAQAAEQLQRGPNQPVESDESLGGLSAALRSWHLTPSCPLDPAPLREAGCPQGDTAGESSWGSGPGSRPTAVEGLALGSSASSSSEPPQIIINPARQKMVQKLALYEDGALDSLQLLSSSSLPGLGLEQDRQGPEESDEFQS
The test system of another experiment is PHK. The conditions noted are these: 0.1 μM. The protocol:
as §1

The next experiment deals with CK1γ2 (Homo sapiens, UniProt P78368). The protocol:
as §1

For another experiment, the target named is ERK1 (Homo sapiens, UniProt P27361). The protocol: as §1
Chain of ERK1 (P27361 whole entry): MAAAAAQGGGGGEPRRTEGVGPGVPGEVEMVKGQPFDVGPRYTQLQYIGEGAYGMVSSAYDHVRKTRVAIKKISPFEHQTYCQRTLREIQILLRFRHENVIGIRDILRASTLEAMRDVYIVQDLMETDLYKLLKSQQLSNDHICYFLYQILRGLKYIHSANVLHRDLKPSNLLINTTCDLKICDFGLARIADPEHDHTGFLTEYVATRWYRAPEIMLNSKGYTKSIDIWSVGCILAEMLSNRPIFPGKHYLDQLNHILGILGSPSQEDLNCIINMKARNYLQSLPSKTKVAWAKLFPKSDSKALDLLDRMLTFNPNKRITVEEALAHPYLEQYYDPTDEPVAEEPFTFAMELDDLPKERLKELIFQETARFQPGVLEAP
A further experiment concerns the target Lck (Homo sapiens, UniProt P06239). Here is the method:
as §1

For the next experiment, the target named is MNK2 (Homo sapiens, UniProt Q9HBH9). The protocol: as §1
The next experiment deals with IKKe (Homo sapiens, UniProt Q14164). The protocol: as §1
Another experiment deals with T2, ULK1 (Homo sapiens, UniProt O75385).
T2 sequence (O75385 1-1050): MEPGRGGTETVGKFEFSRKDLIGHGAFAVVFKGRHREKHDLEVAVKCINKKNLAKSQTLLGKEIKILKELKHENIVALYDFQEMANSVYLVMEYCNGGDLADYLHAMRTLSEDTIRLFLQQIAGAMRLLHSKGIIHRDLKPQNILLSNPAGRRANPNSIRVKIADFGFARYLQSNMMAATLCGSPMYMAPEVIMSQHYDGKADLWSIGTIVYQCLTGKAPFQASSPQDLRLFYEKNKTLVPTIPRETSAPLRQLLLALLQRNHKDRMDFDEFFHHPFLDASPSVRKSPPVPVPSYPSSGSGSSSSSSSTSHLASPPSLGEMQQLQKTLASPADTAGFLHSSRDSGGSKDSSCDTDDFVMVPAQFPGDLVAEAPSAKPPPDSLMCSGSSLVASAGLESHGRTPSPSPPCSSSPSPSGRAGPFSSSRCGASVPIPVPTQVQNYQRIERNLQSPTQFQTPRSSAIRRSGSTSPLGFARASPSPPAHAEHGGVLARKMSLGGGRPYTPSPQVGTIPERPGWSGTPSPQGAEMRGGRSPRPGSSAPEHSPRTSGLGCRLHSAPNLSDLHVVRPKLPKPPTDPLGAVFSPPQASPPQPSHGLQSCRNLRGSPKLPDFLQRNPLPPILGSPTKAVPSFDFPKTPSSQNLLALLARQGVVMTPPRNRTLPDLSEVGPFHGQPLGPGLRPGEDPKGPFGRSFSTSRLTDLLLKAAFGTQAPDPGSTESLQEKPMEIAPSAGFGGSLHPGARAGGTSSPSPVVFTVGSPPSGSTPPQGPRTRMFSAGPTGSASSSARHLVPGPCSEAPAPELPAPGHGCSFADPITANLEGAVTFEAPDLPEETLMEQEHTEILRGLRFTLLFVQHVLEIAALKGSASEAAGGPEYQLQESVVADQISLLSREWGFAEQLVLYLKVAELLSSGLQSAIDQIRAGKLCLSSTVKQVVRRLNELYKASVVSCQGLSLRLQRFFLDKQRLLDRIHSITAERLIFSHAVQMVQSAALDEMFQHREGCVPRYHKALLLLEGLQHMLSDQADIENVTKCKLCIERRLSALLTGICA
The protocol: as §1

The target of another experiment is ERK8 (Homo sapiens, UniProt Q8TD08). Here is the method:
as §1

A further experiment addresses DAPK1 (Homo sapiens, UniProt P53355). Here is the method: as §1
Another experiment deals with JNK2 (Homo sapiens, UniProt P45984). The protocol: as §1
Chain of JNK2 (P45984 whole entry): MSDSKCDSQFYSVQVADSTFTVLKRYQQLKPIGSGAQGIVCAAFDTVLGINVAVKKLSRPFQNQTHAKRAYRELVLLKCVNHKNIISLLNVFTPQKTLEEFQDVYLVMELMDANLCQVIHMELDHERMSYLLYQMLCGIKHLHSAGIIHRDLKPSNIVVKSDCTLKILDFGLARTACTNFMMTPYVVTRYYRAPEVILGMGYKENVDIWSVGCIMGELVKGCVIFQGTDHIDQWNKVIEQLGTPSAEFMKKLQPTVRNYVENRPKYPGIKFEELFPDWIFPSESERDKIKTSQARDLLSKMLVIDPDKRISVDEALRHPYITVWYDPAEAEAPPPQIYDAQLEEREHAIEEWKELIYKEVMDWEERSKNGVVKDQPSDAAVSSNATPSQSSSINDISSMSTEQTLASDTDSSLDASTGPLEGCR
In a further experiment the target is MSK1 (Homo sapiens, UniProt O75582). Here is the method:
as §1

A value given as a limit tells only on which side of the number the result lay.

Chain of MSK1 (O75582 whole entry): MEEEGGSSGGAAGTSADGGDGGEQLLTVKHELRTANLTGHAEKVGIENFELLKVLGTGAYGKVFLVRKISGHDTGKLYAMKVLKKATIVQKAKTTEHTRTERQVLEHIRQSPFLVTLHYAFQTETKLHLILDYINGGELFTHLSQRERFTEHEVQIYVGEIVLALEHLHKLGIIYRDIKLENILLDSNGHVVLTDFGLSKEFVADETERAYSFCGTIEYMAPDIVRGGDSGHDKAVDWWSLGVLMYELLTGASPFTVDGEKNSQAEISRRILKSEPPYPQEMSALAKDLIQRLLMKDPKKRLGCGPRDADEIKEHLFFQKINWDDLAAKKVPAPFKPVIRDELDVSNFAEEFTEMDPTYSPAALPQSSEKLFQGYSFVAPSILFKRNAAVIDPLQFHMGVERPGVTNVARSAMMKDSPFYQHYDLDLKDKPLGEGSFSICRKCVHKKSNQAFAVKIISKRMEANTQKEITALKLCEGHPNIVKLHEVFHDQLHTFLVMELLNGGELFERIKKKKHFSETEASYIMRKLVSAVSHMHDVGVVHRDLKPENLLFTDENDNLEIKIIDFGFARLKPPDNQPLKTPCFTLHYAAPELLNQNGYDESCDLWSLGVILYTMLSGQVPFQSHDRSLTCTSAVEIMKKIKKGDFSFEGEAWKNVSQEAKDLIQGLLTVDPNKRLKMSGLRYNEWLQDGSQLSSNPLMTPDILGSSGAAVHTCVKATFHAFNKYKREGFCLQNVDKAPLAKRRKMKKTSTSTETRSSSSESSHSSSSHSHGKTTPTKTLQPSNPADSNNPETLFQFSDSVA
Chain of CSK (P41240 whole entry): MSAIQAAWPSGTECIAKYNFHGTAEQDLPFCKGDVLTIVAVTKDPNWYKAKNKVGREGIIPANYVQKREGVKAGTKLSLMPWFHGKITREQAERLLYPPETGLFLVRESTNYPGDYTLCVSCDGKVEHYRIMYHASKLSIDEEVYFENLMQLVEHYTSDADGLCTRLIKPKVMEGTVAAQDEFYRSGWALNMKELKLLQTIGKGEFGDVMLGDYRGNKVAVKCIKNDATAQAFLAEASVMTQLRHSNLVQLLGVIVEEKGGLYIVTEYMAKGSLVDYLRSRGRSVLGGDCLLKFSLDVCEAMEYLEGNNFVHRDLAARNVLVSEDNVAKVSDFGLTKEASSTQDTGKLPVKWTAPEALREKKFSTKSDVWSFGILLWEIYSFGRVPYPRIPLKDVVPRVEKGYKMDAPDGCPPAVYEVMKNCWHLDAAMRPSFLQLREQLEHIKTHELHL
Chain of MARK3 (P27448 whole entry): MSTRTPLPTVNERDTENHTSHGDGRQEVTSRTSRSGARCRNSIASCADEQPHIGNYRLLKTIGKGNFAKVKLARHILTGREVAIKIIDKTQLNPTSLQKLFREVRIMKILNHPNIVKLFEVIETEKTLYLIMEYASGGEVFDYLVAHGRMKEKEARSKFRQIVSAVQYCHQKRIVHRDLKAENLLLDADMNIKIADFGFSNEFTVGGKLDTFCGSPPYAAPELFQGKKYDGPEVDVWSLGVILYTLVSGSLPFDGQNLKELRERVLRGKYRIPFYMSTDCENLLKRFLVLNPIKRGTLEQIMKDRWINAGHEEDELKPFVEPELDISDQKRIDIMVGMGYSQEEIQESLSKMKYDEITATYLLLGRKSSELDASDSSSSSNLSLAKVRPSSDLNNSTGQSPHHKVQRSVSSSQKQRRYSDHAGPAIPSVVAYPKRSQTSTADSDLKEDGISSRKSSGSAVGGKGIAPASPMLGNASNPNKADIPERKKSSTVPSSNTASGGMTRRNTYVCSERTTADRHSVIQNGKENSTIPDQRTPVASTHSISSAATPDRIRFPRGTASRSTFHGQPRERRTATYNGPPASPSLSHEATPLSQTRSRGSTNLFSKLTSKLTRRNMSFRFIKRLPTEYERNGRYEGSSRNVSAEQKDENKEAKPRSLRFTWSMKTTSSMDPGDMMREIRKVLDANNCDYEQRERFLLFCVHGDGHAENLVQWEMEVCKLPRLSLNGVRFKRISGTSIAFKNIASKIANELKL
Chain of DAPK1 (P53355 whole entry): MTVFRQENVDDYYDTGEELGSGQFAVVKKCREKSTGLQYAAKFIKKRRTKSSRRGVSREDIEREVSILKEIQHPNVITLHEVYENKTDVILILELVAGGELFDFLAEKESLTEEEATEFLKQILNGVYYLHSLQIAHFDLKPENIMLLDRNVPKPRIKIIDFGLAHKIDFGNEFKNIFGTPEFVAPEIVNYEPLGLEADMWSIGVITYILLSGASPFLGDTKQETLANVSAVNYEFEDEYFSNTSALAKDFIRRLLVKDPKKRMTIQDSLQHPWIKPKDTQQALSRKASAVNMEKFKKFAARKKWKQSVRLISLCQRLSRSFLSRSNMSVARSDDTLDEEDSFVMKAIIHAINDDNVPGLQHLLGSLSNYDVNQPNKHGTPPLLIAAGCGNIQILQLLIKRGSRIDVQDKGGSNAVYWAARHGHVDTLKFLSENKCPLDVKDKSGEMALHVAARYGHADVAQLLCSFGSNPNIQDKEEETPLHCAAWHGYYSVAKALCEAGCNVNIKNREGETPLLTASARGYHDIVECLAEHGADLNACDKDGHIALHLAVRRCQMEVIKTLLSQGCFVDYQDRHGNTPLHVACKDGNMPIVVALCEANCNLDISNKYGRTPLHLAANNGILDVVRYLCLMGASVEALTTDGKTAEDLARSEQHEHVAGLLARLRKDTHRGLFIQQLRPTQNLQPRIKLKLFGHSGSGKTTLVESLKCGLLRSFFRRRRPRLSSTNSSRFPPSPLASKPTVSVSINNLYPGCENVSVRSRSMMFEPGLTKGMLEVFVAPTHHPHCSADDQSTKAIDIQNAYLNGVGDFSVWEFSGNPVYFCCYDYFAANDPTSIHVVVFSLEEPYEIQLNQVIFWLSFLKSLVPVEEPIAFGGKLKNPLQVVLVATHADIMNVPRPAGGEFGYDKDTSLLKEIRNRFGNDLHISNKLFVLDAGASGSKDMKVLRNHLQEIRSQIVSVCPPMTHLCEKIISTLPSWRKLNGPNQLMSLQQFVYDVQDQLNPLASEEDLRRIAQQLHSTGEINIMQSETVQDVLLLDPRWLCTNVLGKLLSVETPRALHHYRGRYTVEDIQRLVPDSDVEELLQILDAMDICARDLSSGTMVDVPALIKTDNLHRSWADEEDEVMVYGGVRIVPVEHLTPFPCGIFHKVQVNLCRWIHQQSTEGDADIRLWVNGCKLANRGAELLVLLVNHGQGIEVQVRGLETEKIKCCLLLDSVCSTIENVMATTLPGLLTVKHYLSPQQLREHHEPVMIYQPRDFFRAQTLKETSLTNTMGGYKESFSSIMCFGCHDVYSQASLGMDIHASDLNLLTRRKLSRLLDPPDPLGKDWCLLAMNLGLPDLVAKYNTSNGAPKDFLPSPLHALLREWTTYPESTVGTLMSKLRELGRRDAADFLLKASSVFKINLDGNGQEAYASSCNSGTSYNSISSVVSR

As for `CCc1ccccc1C(=O)Nc1n[nH]c2c(C)c(F)c(C3C(C#N)=C(C)N(C)C(C)=C3C#N)cc12` [BAY-3827, N-[5-(3,5-dicyano-1,2,6-trimethyl-4H-pyridin-4-yl)-6-fluoro-7-methyl-1H-indazol-3-yl]-2-ethylbenzamide], the remaining activity at 0.1 µM on DYRK3 was 97%; on CSK, 79%; at TBK1, no more than 50%; on EF2K it was 91%; at MARK3, 98%; on IRAK1, no more than 50%. Further, the remaining activity at 0.1 µM at CK1γ2 came out at 95%; at ERK1, 105%; at Lck, 93%; at MNK2 it was 99%; on IKKe, 85%; on ULK1, 88%. Moreover, the remaining activity at 0.1 µM on ERK8 came out at 66%; on DAPK1, 94%; at JNK2 it was 105%; on MSK1, 56%. Besides, the inhibition at 0.1 µM on TBK1 and at IRAK1 was roughly 60% each time. The inhibition of kinase in the experiment on PHK lay within 80 to 85%. For the same compound, at MSK1 (1 μM, cross-referenced with screen data of ref 37, read-out: activity remaining after treatment), the remaining activity at 1 µM is no more than 50%.
Consider `CC1=C(C#N)C(c2ccc3c(c2)c(NC(=O)c2ccccc2C)nn3C)C(C#N)=C(C)N1` [BAY-974, N-[5-(3,5-dicyano-2,6-dimethyl-1,4-dihydropyridin-4-yl)-1-methylindazol-3-yl]-2-methylbenzamide], for which the remaining activity at 0.1 µM at DYRK3 turned out to be 83%; at CSK it was 123%; on TBK1, 91%; on EF2K, 119%; at MARK3 it was 80%; on CK1γ2, 112%. For the same compound, the remaining activity at 0.1 µM on ERK1 was 103%; at Lck, 58%; on MNK2, 98%; at IKKe, 101%; on ULK1, no more than 50%; at ERK8 it was 91%. For the same compound, the remaining activity at 0.1 µM on DAPK1 was 109%; on JNK2, 104%; on MSK1, 100%. Also, the inhibition at 0.1 µM at IRAK1 and on ULK1 was 55 to 90% in each case. In addition, the “Kinase activity remaining (%)” value on PHK is on record as 120%.

The remaining activity is the signal under treatment as a percentage of the control signal. As usually defined, the inhibition is the change of the read-out against control, counted positive when it falls.
